Data reported in ChEMBL document CHEMBL1150276, “2-amino-1,3-thiazol-4(5H)-ones as potent and selective 11beta-hydroxysteroid dehydrogenase type 1 inhibitors: enzyme-ligand co-crystal structure and demonstration of pharmacodynamic effects in C57Bl/6 mice” (J Med Chem, 2008).

Experiments:
[1] = target: 11-beta-hydroxysteroid dehydrogenase 1 (Homo sapiens, UniProt P28845)
Description: Binding affinity to human 11beta HSD1 expressed in Escherichia coli by scintillation proximity assay

Plasma [2] = assay: Protein binding in C57BL/6 mouse plasma assessed as fraction unbound at 30 mg/kg, po after 6 hrs; assay type: ADME, organism-based; set-up: dose 30 mg/kg, route oral; settings: in vivo
Mus musculus [3] = assay: Ex vivo inhibition of 11beta HSD1 activity in C57BL/6 mouse adipose tissue at 30 mg/kg, po after 6 hrs; assay type: functional; set-up: scale not given: the % may be the effect or the level left
Mus musculus [4] = assay: Ex vivo inhibition of 11beta HSD1 activity in C57BL/6 mouse liver at 30 mg/kg, po after 2 hrs; assay type: functional; set-up: scale not given: the % may be the effect or the level left
[5] = Plasma concentration in C57BL/6 mouse plasma at 30 mg/kg, po after 2 hrs; assay type: ADME, organism-based; set-up: dose 30 mg/kg, route oral
[6] = Plasma concentration in C57BL/6 mouse plasma at 30 mg/kg, po after 6 hrs; assay type: ADME, organism-based; set-up: dose 30 mg/kg, route oral
Mus musculus [7] = assay: Ex vivo inhibition of 11beta HSD1 activity in C57BL/6 mouse adipose tissue at 30 mg/kg, po after 2 hrs; assay type: functional; set-up: scale not given: the % may be the effect or the level left
Mus musculus [8] = assay: Ex vivo inhibition of 11beta HSD1 activity in C57BL/6 mouse liver at 30 mg/kg, po after 6 hrs; assay type: functional; set-up: scale not given: the % may be the effect or the level left
[9] = target: T1, 11-beta-hydroxysteroid dehydrogenase type 2 (Homo sapiens, UniProt P80365); assay: biochemical
T1 sequence (P80365 whole entry): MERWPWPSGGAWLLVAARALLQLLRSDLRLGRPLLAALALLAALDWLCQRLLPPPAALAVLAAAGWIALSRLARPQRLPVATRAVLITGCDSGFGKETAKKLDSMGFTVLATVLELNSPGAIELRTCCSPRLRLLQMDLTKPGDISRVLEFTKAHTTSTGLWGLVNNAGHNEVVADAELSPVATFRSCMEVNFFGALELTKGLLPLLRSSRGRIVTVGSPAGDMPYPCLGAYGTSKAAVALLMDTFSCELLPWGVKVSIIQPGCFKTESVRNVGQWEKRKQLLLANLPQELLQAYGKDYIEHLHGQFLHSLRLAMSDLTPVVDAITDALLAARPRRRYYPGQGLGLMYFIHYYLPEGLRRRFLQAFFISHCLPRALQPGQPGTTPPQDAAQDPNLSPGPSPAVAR
Description: Binding affinity to human 11beta HSD2 in HEK293 cells by scintillation proximity assay

[10] = Ratio of Ki for mouse 11beta HSD1 over Ki for human 11beta HSD1
[11] = Tmax in rat at 2 mg/kg, po; assay type: ADME, organism-based; set-up: dose 2 mg/kg, route oral; settings: in vivo
[12] = Volume of distribution at steady state in rat at 0.5 mg/kg, iv; assay type: ADME, organism-based; set-up: dose 0.5 mg/kg, route intravenous; settings: in vivo, read-out: Vdss
[13] = Oral bioavailability in rat at 2 mg/kg; assay type: ADME, organism-based; settings: in vivo
Rattus norvegicus = assay: AUC(0 to infinity) in rat at 2 mg/kg, po; assay type: ADME, organism-based, Plasma; set-up: time infinity, dose 2 mg/kg, route oral; settings: in vivo
Plasma [14] = assay: Protein binding in C57BL/6 mouse plasma assessed as fraction unbound at 30 mg/kg, po after 2 hrs; assay type: ADME, organism-based; set-up: dose 30 mg/kg, route oral; settings: in vivo
[15] = Clearance in rat at 0.5 mg/kg, iv; assay type: ADME, organism-based; set-up: dose 0.5 mg/kg, route intravenous; settings: in vivo
[16] = Half life in rat at 2 mg/kg, po; assay type: ADME, organism-based; set-up: dose 2 mg/kg, route oral; settings: in vivo
[17] = target: 11-beta-hydroxysteroid dehydrogenase 1 (Rattus norvegicus, UniProt P16232); assay: Binding affinity to rat recombinant 11beta HSD1 by scintillation proximity assay
[18] = target: 11-beta-hydroxysteroid dehydrogenase 1 (Mus musculus, UniProt P50172); assay: Binding affinity to C57BL/6 mouse recombinant 11beta HSD1 by scintillation proximity assay
Chain of 11-beta-hydroxysteroid dehydrogenase 1 (Mus musculus, UniProt P50172) (P50172 whole entry): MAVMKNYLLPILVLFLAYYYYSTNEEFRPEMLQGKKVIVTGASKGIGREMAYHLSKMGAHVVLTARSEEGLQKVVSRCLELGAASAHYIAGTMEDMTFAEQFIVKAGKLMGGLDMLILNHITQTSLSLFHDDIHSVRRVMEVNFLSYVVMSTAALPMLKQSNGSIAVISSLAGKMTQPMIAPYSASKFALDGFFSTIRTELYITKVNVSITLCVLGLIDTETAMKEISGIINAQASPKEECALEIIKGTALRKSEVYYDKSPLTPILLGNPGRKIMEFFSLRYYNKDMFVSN

Chain of 11-beta-hydroxysteroid dehydrogenase 1 (Homo sapiens, UniProt P28845) (P28845 whole entry): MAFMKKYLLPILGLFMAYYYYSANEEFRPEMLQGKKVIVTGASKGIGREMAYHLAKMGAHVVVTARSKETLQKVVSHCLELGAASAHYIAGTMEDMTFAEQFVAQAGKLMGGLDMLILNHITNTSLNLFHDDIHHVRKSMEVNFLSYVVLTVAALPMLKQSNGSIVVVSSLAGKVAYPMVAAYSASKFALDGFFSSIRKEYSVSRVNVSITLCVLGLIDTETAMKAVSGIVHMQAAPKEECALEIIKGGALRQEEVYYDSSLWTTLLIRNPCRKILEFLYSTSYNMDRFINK
Chain of 11-beta-hydroxysteroid dehydrogenase 1 (Rattus norvegicus, UniProt P16232) (P16232 whole entry): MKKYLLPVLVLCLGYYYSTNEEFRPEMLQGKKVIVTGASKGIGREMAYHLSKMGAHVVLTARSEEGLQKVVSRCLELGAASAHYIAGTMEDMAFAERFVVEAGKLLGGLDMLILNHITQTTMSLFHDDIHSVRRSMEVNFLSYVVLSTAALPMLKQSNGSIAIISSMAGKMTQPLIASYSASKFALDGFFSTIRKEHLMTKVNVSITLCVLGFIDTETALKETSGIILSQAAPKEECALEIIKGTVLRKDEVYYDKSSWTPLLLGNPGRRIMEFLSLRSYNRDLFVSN

For `O=C1N=C(NC23CC4CC(CC(C4)C2)C3)SC12CCCC2`, which Ki [1] is on record?
Its Ki is 28 nM.

For `CCC1(C)SC(NC2C3CCC2CC3)=NC1=O` (racemic), which Ki [1] is on record?
Its Ki is 372 nM.

What does the source list for `O=C1N=C(NC23CC4CC(CC2C4)C3)SC12CCCC2`?
Activity (Plasma [2]): 44 nM; Fu (Plasma [2]): 0.63%; Activity (Mus musculus [3]): 87%; Activity (Mus musculus [4]): 89%; Ki [1]: 3 nM; concentration at 2 h [5]: 20 µM; concentration at 6 h [6]: 7.3 µM; Activity (Mus musculus [7]): 86%; Activity (Mus musculus [8]): 79%; IC50 [9]: > 10000 nM; Ratio Ki [10]: 40; Tmax [11]: 2.5 h; Vd [12]: 1.84 L/kg; bioavailability [13]: 45%; AUC (Rattus norvegicus): 175 ng·h/mL; Activity (Plasma [14]): 120 nM; Fu (Plasma [14]): 0.63%; clearance [15]: 104 mL/min/kg; half-life [16]: 2 h; Ki [17]: 180 nM; Ki [18]: 120 nM

With `CCCC1(C)SC(NC2CCCCC2)=NC1=O` (racemic) as the compound, how does the Ki [1] read?
Its Ki is 55 nM.

With `CCCC1(C)SC(NC2CCCCCCC2)=NC1=O` (racemic) as the compound, how does the Ki [1] read?
Its Ki is 28 nM.

What about the IC50 [9] of the same compound?
The IC50 was over 10000 nM.

For `CCCC1(C)SC(NC23CC4CC(CC2C4)C3)=NC1=O` (racemic), which Ki [1] is on record?
Its Ki is 12 nM.

For `CCC1(C)SC(NC2CCCCCC2)=NC1=O` (racemic), which Ki [1] is on record?
Its Ki is 82 nM.

And the IC50 [9]?
The IC50 was over 10000 nM.

For `CCC1(CC)SC(NC2CCCCCCC2)=NC1=O`, which Ki [1] is on record?
Its Ki is 26 nM.

And the IC50 [9]?
The IC50 was over 10000 nM.

Which Ki [1] does the source give for `CCC1(C)SC(NC2C(C)(C)C2(C)C)=NC1=O` (racemic) here?
The Ki was 58 nM.

What does the source list for `CCCC1(C)SC(NC2CCCCCC2)=NC1=O` (racemic)?
Ki [1]: 32 nM; IC50 [9]: > 10000 nM

With `CCC1(C)SC(Nc2ccccc2F)=NC1=O` (configuration not stated) as the compound, how does the Ki [1] read?
The Ki was 151 nM.

With `CCC1(C)SC(NCC2CCCCC2)=NC1=O` (racemic) as the compound, how does the Ki [1] read?
The Ki was 64 nM.

Which Ki [1] does the source give for `CCC1(C)SC(NC23CCC(CC2)C3)=NC1=O` (racemic) here?
Its Ki is 73 nM.

What about the IC50 [9] of the same compound?
Its IC50 is over 10000 nM.

For `CCCC1(C)SC(NC23CC4CC(CC(C4)C2)C3)=NC1=O` (racemic), which Ki [1] is on record?
The Ki was 24 nM.

With `CCC1(C)SC(NC23CC4CC(CC(C4)C2)C3)=NC1=O` (racemic) as the compound, how does the Ki [1] read?
The Ki was 24 nM.

With `CCC1(C)SC(NC23CC4CC(CC2C4)C3)=NC1=O` (racemic) as the compound, how does the Ki [1] read?
Its Ki is 13 nM.

And the IC50 [9]?
Its IC50 is over 10000 nM.

What does the source list for `CCC1(CC)SC(NC23CC4CC(CC2C4)C3)=NC1=O`?
Ki [1]: 13 nM; IC50 [9]: > 10000 nM

With `CCC1(CC)SC(NC23CC4CC(CC(C4)C2)C3)=NC1=O` as the compound, how does the Ki [1] read?
The Ki was 20 nM.

Which Ki [1] does the source give for `CCCC1(C)SC(NCC2CCCCC2)=NC1=O` (racemic) here?
Its Ki is 34 nM.

What does the source list for `CCC1SC(Nc2ccccc2C)=NC1=O` (configuration not stated)?
Ki [1]: 189 nM; IC50 [9]: > 10000 nM

With `CCC1(C)SC(NC2CCCCCCC2)=NC1=O` (racemic) as the compound, how does the Ki [1] read?
The Ki was 47 nM.

And the IC50 [9]?
Its IC50 is over 10000 nM.

For `CCCC1(C)SC(NC2C(C)(C)C2(C)C)=NC1=O` (racemic), which Ki [1] is on record?
Its Ki is 38 nM.

Which Ki [1] does the source give for `O=C1N=C(NC2CCCCCCC2)SC12CCCC2` here?
The Ki was 14 nM.

And the IC50 [9]?
The IC50 was over 10000 nM.

Which Ki [1] does the source give for `CCCC1(C)SC(NC2C3CCC2CC3)=NC1=O` (racemic) here?
Its Ki is 149 nM.

And the IC50 [9]?
The IC50 was over 10000 nM.

For `CCC1(C)SC(NC2CCCCC2)=NC1=O` (racemic), which Ki [1] is on record?
The Ki was 126 nM.

For `CCCC1(C)SC(NC23CCC(CC2)C3)=NC1=O` (racemic), which Ki [1] is on record?
Its Ki is 25 nM.
